Test results taken from patent US12281149B2, “Modulators of G-protein coupled receptors” (priority 2021, dated 2025).
*1 amine or outer side, *2 acyl side, *3 side chain or, on linkers, in order; H or OH if unused. Where a SMILES comes first, the peptide text is derived from it. Side-chain parts run from the residue outwards. [ ]: non-standard residue; d: D form. The star is where a group is joined. Isobutyryl(2-(3-CN-5-F-Ph)) = CC(C)(C(=O)*)c1cc(F)cc(C#N)c1; C20 diacid = O=C(O)CCCCCCCCCCCCCCCCCCC(=O)*; X52 = CC(C)(C(=O)*)c1cc(F)cc(OC(F)(F)F)c1; γGlu = O=C(O)[C@H](CCC(=O)[*:2])N[*:1]; Gla = N[C@@H](CC(C(=O)O)C(=O)O)C(=O)O; AEEA = NCCOCCOCC(=O)O; Aib = CC(C)(N)C(=O)O; βAla = NCCC(=O)O

Key:
Type in all cases: cell-based
GIP receptor [1] = target: T1, GIP receptor (Homo sapiens, UniProt P48546); test: HitHunter cAMP assay, GIP receptor; conditions: for EC50: CHO cells stably expressing GIP receptor, cAMP accumulation, 30 min, read-out: EC50 GIP-1R; for Emax: CHO cells, cAMP, normalized to maximum signal from GIP (high) and DMSO (low), read-out: Emax GIP-1R
T1 sequence (P48546 22-466): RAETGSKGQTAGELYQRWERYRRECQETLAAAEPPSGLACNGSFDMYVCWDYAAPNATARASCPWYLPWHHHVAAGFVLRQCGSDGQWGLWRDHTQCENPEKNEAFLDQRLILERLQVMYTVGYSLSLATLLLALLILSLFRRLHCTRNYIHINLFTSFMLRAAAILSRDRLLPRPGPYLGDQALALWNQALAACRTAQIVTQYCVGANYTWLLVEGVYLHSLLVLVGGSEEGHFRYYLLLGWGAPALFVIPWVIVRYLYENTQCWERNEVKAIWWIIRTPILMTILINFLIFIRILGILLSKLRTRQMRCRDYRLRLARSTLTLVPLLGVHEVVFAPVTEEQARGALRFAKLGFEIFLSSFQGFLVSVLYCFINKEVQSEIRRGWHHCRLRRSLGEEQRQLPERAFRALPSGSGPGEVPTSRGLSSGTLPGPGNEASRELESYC

GIP receptor [2] = target: T1, GIP receptor; test: PathHunter β-arrestin assay, GIP receptor; parameters: host or cells: PathHunter CHO-K1 GIPR β-Arrestin Cell Line; conditions: β-arrestin-2 recruitment, PathHunter CHO-K1 GIPR β-Arrestin Cell Line, 90 min at 37° C.; normalized to GIP; read-out: GIPR β Arrestin EC50
Description: β-arrestin-2 recruitment for GLP-1 receptor or GIP receptor was measured using the DiscoverX PathHunter Detection Kit and PathHunter® CHO-K1 GLPIR β-Arrestin Cell Line or PathHunter® CHO-K1 GIPR β-Arrestin Cell Line, respectively). Briefly, cells were grown in Ham's F12 Nutrient Mix with 10% FBS and lifted with Cell dissociation buffer, Enzyme free, PBS based (ThermoFisher). Harvested cells were pelleted and resuspended in Assay Complete Cell Plating Reagent 2 and 5000 cells per well were plated in tissue culture treated 384-well small volume white assay plates. Plates were then incubated at 37° C. and 5% CO2 overnight. The media was then replaced with fresh Assay Complete Cell Plating Reagent 2. Cells were then treated with 10 nl compound in DMSO using an ECHO 550 acoustic dispenser (Labcyte) in a 20-point dose response format in duplicate for 90 min at 37° C. The assay was then completed according to the manufacturer's instructions. Luminescence was measured using a Perkin Elmer Envision plate reader. Raw data was normalized to the maximum signal from GLP-1 or GIP (high) and DMSO (low). Dose response curves were analyzed using GraphPad Prism 9.0.

GLP-1 receptor [3] = target: T2, GLP-1 receptor (Homo sapiens, UniProt P43220); test: PathHunter β-arrestin assay, GLP-1 receptor; parameters: host or cells: PathHunter CHO-K1 GLP1R β-Arrestin Cell Line; conditions: β-arrestin-2 recruitment, PathHunter CHO-K1 GLP1R β-Arrestin Cell Line, 90 min at 37° C.; normalized to GLP-1; read-out: GLP-1R β Arrestin EC50
T2 sequence (P43220 24-463): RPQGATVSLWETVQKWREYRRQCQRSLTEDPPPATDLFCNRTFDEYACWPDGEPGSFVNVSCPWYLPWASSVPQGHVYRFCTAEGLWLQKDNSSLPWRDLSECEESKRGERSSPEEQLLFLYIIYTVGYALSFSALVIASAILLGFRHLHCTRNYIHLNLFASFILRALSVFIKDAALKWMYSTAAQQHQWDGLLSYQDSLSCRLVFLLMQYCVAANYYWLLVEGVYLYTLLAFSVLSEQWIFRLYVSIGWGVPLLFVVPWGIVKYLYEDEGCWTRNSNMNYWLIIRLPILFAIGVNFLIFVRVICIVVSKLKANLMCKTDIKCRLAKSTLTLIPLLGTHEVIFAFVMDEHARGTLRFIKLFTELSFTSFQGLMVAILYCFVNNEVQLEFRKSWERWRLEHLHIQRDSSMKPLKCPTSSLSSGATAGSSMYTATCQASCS

GLP-1 receptor [4] = target: T2, GLP-1 receptor; test: HitHunter cAMP assay, GLP-1 receptor; conditions: for EC50: CHO cells stably expressing human GLP-1 receptor, cAMP accumulation, 30 min, read-out: EC50 GLP-1R; for Emax: CHO cells, cAMP, normalized to maximum signal from GLP-1 (high) and DMSO (low), read-out: Emax GLP-1R

For `CC[C@H](C)[C@H](NC(=O)[C@H](CC(C)C)NC(=O)[C@H](Cc1c[nH]c2ccccc12)NC(=O)[C@H](CCC(N)=O)NC(=O)[C@@H](NC(=O)[C@H](Cc1ccccc1)NC(=O)[C@H](C)NC(=O)[C@H](CCCCNC(=O)COCCOCCNC(=O)COCCOCCNC(=O)CC[C@H](NC(=O)CCCCCCCCCCCCCCCCCCC(=O)O)C(=O)O)NC(=O)[C@H](CCC(N)=O)NC(=O)[C@H](C)NC(=O)[C@@H](NC(=O)[C@H](CCCCN)NC(=O)[C@H](CC(=O)O)NC(=O)[C@H](CC(C)C)NC(=O)C(C)(C)NC(=O)[C@@H](NC(=O)[C@H](CO)NC(=O)[C@H](Cc1ccc(O)cc1)NC(=O)[C@H](CC(=O)O)NC(=O)[C@H](CO)NC(=O)[C@@H](NC(=O)[C@H](Cc1ccccc1)NC(=O)[C@@H](NC(=O)CNC(=O)CC[C@H](NC(=O)CCNC(=O)C(C)(C)c1cc(F)cc(C#N)c1)C(=O)O)[C@@H](C)O)[C@@H](C)O)[C@@H](C)CC)[C@@H](C)CC)C(C)C)C(=O)N[C@@H](C)C(=O)NCC(=O)NCC(=O)N1CCC[C@H]1C(=O)N[C@@H](CO)C(=O)N[C@@H](CO)C(=O)NCC(=O)N[C@@H](C)C(=O)N1CCC[C@H]1C(=O)N1CCC[C@H]1C(=O)N1CCC[C@H]1C(=O)N[C@@H](CO)C(N)=O` [Compound 110] ({Isobutyryl(2-(3-CN-5-F-Ph))-βAla-γGlu}-GTFTSDYSI[Aib]LDKIAQK([AEEA-AEEA-γGlu-C20 diacid])AFVQWLIAGGPSSGAPPPS-NH2), the EC50 (GIP receptor [1]) was 100 to 1000 nM, the Emax (GIP receptor [1]) was 32% and the EC50 (GIP receptor [2]) was greater than 1000 nM. For the same compound, the EC50 (GLP-1 receptor [3]) was greater than 1000 nM, the EC50 (GLP-1 receptor [4]) was 100 to 1000 nM and the Emax (GLP-1 receptor [4]) was 31%.
Work on `CC[C@H](C)[C@H](NC(=O)[C@H](CC(C)C)NC(=O)[C@H](Cc1c[nH]c2ccccc12)NC(=O)[C@H](CCC(N)=O)NC(=O)[C@@H](NC(=O)[C@H](Cc1ccccc1)NC(=O)[C@H](C)NC(=O)[C@H](CCCCNC(=O)COCCOCCNC(=O)COCCOCCNC(=O)CC[C@H](NC(=O)CCCCCCCCCCCCCCCCCCC(=O)O)C(=O)O)NC(=O)[C@H](CCC(N)=O)NC(=O)[C@H](C)NC(=O)[C@@H](NC(=O)[C@H](CCCCN)NC(=O)[C@H](CC(=O)O)NC(=O)[C@H](CC(C)C)NC(=O)C(C)(C)NC(=O)[C@@H](NC(=O)[C@H](CO)NC(=O)[C@H](Cc1ccc(O)cc1)NC(=O)[C@H](CC(=O)O)NC(=O)[C@H](CO)NC(=O)[C@@H](NC(=O)[C@H](Cc1ccccc1)NC(=O)[C@@H](NC(=O)CNC(=O)[C@H](CC(C(=O)O)C(=O)O)NC(=O)CCNC(=O)C(C)(C)c1cc(F)cc(C#N)c1)[C@@H](C)O)[C@@H](C)O)[C@@H](C)CC)[C@@H](C)CC)C(C)C)C(=O)N[C@@H](C)C(=O)NCC(=O)NCC(=O)N1CCC[C@H]1C(=O)N[C@@H](CO)C(=O)N[C@@H](CO)C(=O)NCC(=O)N[C@@H](C)C(=O)N1CCC[C@H]1C(=O)N1CCC[C@H]1C(=O)N1CCC[C@H]1C(=O)N[C@@H](CO)C(N)=O` [Compound 111] ({Isobutyryl(2-(3-CN-5-F-Ph))-βAla}-[Gla]GTFTSDYSI[Aib]LDKIAQK([AEEA-AEEA-γGlu-C20 diacid])AFVQWLIAGGPSSGAPPPS-NH2) yielded an EC50 (GIP receptor [1]) of 10 to 100 nM, an Emax (GIP receptor [1]) of 105% and an EC50 (GIP receptor [2]) greater than 1000 nM. The EC50 (GLP-1 receptor [3]) was greater than 1000 nM, the EC50 (GLP-1 receptor [4]) was 1 to 10 nM and the Emax (GLP-1 receptor [4]) was 95%.
`CC[C@H](C)[C@H](NC(=O)[C@H](CC(C)C)NC(=O)[C@H](Cc1c[nH]c2ccccc12)NC(=O)[C@H](CCC(N)=O)NC(=O)[C@@H](NC(=O)[C@H](Cc1ccccc1)NC(=O)[C@H](C)NC(=O)[C@H](CCCCNC(=O)COCCOCCNC(=O)COCCOCCNC(=O)CC[C@H](NC(=O)CCCCCCCCCCCCCCCCCCC(=O)O)C(=O)O)NC(=O)[C@H](CCC(N)=O)NC(=O)[C@H](C)NC(=O)[C@@H](NC(=O)[C@H](CCCCN)NC(=O)[C@H](CC(=O)O)NC(=O)[C@H](CC(C)C)NC(=O)C(C)(C)NC(=O)[C@@H](NC(=O)[C@H](CO)NC(=O)[C@H](Cc1ccc(O)cc1)NC(=O)[C@H](CC(=O)O)NC(=O)[C@H](CO)NC(=O)[C@@H](NC(=O)[C@H](Cc1ccccc1)NC(=O)[C@@H](NC(=O)CNC(=O)[C@H](CCC(=O)O)NC(=O)CCNC(=O)C(C)(C)c1cc(F)cc(OC(F)(F)F)c1)[C@@H](C)O)[C@@H](C)O)[C@@H](C)CC)[C@@H](C)CC)C(C)C)C(=O)N[C@@H](C)C(=O)NCC(=O)NCC(=O)N1CCC[C@H]1C(=O)N[C@@H](CO)C(=O)N[C@@H](CO)C(=O)NCC(=O)N[C@@H](C)C(=O)N1CCC[C@H]1C(=O)N1CCC[C@H]1C(=O)N1CCC[C@H]1C(=O)N[C@@H](CO)C(N)=O` [Compound 112] ({X52-βAla}-EGTFTSDYSI[Aib]LDKIAQK([AEEA-AEEA-γGlu-C20 diacid])AFVQWLIAGGPSSGAPPPS-NH2) showed an EC50 (GIP receptor [1]) of 100 to 1000 nM, an Emax (GIP receptor [1]) of 99% and an EC50 (GIP receptor [2]) greater than 1000 nM. For the same compound, the EC50 (GLP-1 receptor [3]) was greater than 1000 nM, the EC50 (GLP-1 receptor [4]) was 1 to 10 nM and the Emax (GLP-1 receptor [4]) was 115%.
With `CC[C@H](C)[C@H](NC(=O)[C@H](CO)NC(=O)[C@H](Cc1ccc(O)cc1)NC(=O)[C@H](CC(=O)O)NC(=O)[C@H](CO)NC(=O)[C@@H](NC(=O)[C@H](Cc1ccccc1)NC(=O)[C@@H](NC(=O)CNC(=O)[C@H](CCC(=O)O)NC(=O)CCNC(=O)C(C)(C)c1cc(F)cc(C#N)c1)[C@@H](C)O)[C@@H](C)O)C(=O)N[C@@H](Cc1ccc(O)cc1)C(=O)N[C@@H](CC(C)C)C(=O)N[C@@H](CC(=O)O)C(=O)N[C@@H](CCCCN)C(=O)N[C@@H](CCCCNC(=O)COCCOCCNC(=O)COCCOCCNC(=O)CC[C@H](NC(=O)CCCCCCCCCCCCCCCCCCC(=O)O)C(=O)O)C(=O)N[C@@H](C)C(=O)N[C@@H](C)C(=O)NC(C)(C)C(=O)N[C@@H](CCC(=O)O)C(=O)N[C@@H](Cc1ccccc1)C(=O)N[C@H](C(=O)N[C@@H](CC(N)=O)C(=O)N[C@@H](Cc1c[nH]c2ccccc12)C(=O)N[C@@H](CC(C)C)C(=O)N[C@@H](CC(C)C)C(=O)N[C@@H](C)C(=O)NCC(=O)NCC(=O)N1CCC[C@H]1C(=O)N[C@@H](CO)C(=O)N[C@@H](CO)C(=O)NCC(=O)N[C@@H](C)C(=O)N1CCC[C@H]1C(=O)N1CCC[C@H]1C(=O)N1CCC[C@H]1C(=O)N[C@@H](CO)C(N)=O)C(C)C` [Compound 114] ({Isobutyryl(2-(3-CN-5-F-Ph))-βAla}-EGTFTSDYSIYLDKK([AEEA-AEEA-γGlu-C20 diacid])AA[Aib]EFVNWLLAGGPSSGAPPPS-NH2) the EC50 (GIP receptor [1]) was 10 to 100 nM, the Emax (GIP receptor [1]) was 95% and the EC50 (GIP receptor [2]) was greater than 1000 nM. It also gave an EC50 (GLP-1 receptor [3]) greater than 1000 nM, an EC50 (GLP-1 receptor [4]) of 0.1 to 1 nM and an Emax (GLP-1 receptor [4]) of 114%.
